According to paper PMC10653547, “Synergistic effect of two antimicrobial peptides, BP203 and MAP-0403 J-2 with conventional antibiotics against colistin-resistant Escherichia coli and Klebsiella pneumoniae clinical isolates” (PLOS ONE, 2023):

How the values were obtained:
[1] = tested on: colistin-resistant K. pneumoniae clinical isolates; assay: Disk diffusion antimicrobial susceptibility testing (CLSI); assay type: cell-based, Klebsiella pneumoniae; details: ten K. pneumoniae isolates; disk diffusion
Description: (§1) Ten non-duplicate clinical isolates of colistin-resistant E. coli (EC) and ten non-duplicate clinical isolates of colistin-resistant K. pneumoniae (KP) were obtained from the bacterial repository of the Division of Infectious Diseases and Tropical Medicine, Department of Medicine, Faculty of Medicine Siriraj Hospital, Mahidol University. The species identification was conducted through standard biochemical tests. Antimicrobial susceptibility testing was carried out using the disk diffusion method following CLSI guidelines. Additionally, the assessment of colistin resistance in all isolates was performed by broth microdilution following CLSI recommendations. […] The amino acid sequences of BP203 and MAP-0403 J-2 were retrieved from previous studies. These peptides are BP100 and MAP-0403 analogs, respectively. […] Antibiotic disks and defibrinated sheep blood were obtained from Oxoid (Basingstoke, UK). All culture media were purchased from Becton Dickinson (Frankin Lakes, NJ, USA). All chemicals were obtained from Sigma-Aldrich (St. Louis, MO, USA).

[2] = tested on: colistin-resistant E. coli clinical isolates; assay: as above; assay type: cell-based, Escherichia coli
Description: as §1

[3] = tested on: colistin-resistant K. pneumoniae clinical isolates; assay: Checkerboard assay for synergy testing; assay type: cell-based, Klebsiella pneumoniae
Description: (§2) The synergistic activities of various two-antimicrobial combinations against colistin-resistant E. coli and K. pneumoniae isolates were evaluated using the checkerboard assay, which was performed in 96-well plates. […] Two-fold serial dilutions of peptides and antibiotics were independently prepared in CAMHB. Afterward, a mixture of different concentrations of the antibiotics and peptides was added to the wells of the microplates. Antibiotics and peptides were also dispended alone in the first row and the first column, respectively. Bacterial inoculum was added to the 96-well plate to achieve a final concentration of 5 × 10^5 CFU/mL. Then, plates were incubated at 37 °C for 20–24 h. MICs were recorded as the minimum concentration of antimicrobial agents without bacterial growth. The interaction between the antimicrobials was determined by calculating the fractional inhibitory concentration index (FICI) according to the formula: FICI = FIC(drug A) + FIC(drug B), where FIC = the MIC of the drug when in the combination/MIC of drug tested individually.

[4] = tested on: colistin-resistant E. coli clinical isolates; assay: Checkerboard assay for synergy testing; assay type: cell-based, Escherichia coli
Description: as §2

[5] = isolate KP-01, checkerboard Rifampicin+BP203
[6] = isolate KP-01, checkerboard Rifampicin+MAP-0403 J-2
[7] = isolate KP-02, checkerboard Rifampicin+BP203
[8] = isolate KP-02, checkerboard Rifampicin+MAP-0403 J-2
[9] = isolate KP-03, checkerboard Rifampicin+BP203
[10] = isolate KP-03, checkerboard Rifampicin+MAP-0403 J-2
[11] = isolate KP-04, checkerboard Rifampicin+BP203
[12] = isolate KP-04, checkerboard Rifampicin+MAP-0403 J-2
[13] = isolate KP-05, checkerboard Rifampicin+BP203
[14] = isolate KP-05, checkerboard Rifampicin+MAP-0403 J-2
[15] = isolate KP-06, checkerboard Rifampicin+BP203
[16] = isolate KP-06, checkerboard Rifampicin+MAP-0403 J-2
[17] = isolate KP-07, checkerboard Rifampicin+BP203
[18] = isolate KP-07, checkerboard Rifampicin+MAP-0403 J-2
[19] = isolate KP-08, checkerboard Rifampicin+BP203
[20] = isolate KP-08, checkerboard Rifampicin+MAP-0403 J-2
[21] = isolate KP-09, checkerboard Rifampicin+BP203
[22] = isolate KP-09, checkerboard Rifampicin+MAP-0403 J-2
[23] = isolate KP-10, checkerboard Rifampicin+BP203
[24] = isolate KP-10, checkerboard Rifampicin+MAP-0403 J-2
[25] = isolate EC-01, checkerboard Rifampicin+BP203
[26] = isolate EC-01, checkerboard Rifampicin+MAP-0403 J-2
[27] = isolate EC-02, checkerboard Rifampicin+BP203
[28] = isolate EC-02, checkerboard Rifampicin+MAP-0403 J-2
[29] = isolate EC-03, checkerboard Rifampicin+BP203
[30] = isolate EC-03, checkerboard Rifampicin+MAP-0403 J-2
[31] = isolate EC-04, checkerboard Rifampicin+BP203
[32] = isolate EC-04, checkerboard Rifampicin+MAP-0403 J-2
[33] = isolate EC-05, checkerboard Rifampicin+BP203
[34] = isolate EC-05, checkerboard Rifampicin+MAP-0403 J-2
[35] = isolate EC-06, checkerboard Rifampicin+BP203
[36] = isolate EC-06, checkerboard Rifampicin+MAP-0403 J-2
[37] = isolate EC-07, checkerboard Rifampicin+BP203
[38] = isolate EC-07, checkerboard Rifampicin+MAP-0403 J-2
[39] = isolate EC-08, checkerboard Rifampicin+BP203
[40] = isolate EC-08, checkerboard Rifampicin+MAP-0403 J-2
[41] = isolate EC-09, checkerboard Rifampicin+BP203
[42] = isolate EC-09, checkerboard Rifampicin+MAP-0403 J-2
[43] = isolate EC-10, checkerboard Rifampicin+BP203
[44] = isolate EC-10, checkerboard Rifampicin+MAP-0403 J-2

C[C@H]1[C@H](NC(=O)/C(=N\OC(C)(C)C(=O)O)c2csc(N)n2)C(=O)N1S(=O)(=O)O [ATM, aztreonam]
S: Interpreted results of disk diffusion ([2]; EC-05) | Interpreted results of disk diffusion ([2]; EC-08)
R: Interpreted results of disk diffusion ([2]; EC-01) | Interpreted results of disk diffusion ([2]; EC-02) | Interpreted results of disk diffusion ([2]; EC-03) | Interpreted results of disk diffusion ([2]; EC-04) | Interpreted results of disk diffusion ([2]; EC-07) | Interpreted results of disk diffusion ([2]; EC-09) | Interpreted results of disk diffusion ([2]; EC-10)
70%: %Resistance ([2]; ten E. coli isolates, disk diffusion)
I: Interpreted results of disk diffusion ([2]; EC-06)
100%: %Resistance [1]

CO[C@H]1/C=C/O[C@@]2(C)Oc3c(C)c(O)c4c(O)c(c(/C=N/N5CCN(C)CC5)c(O)c4c3C2=O)NC(=O)/C(C)=C\C=C\[C@H](C)[C@H](O)[C@@H](C)[C@@H](O)[C@@H](C)[C@H](OC(C)=O)[C@@H]1C [RIF, rifampicin]
128 µg/mL: MIC alone [3, 11] | MIC combination [3, 22]
16 µg/mL: MIC combination [3, 5] | MIC combination [3, 6] | MIC combination [3, 8] | MIC alone [3, 13] | MIC alone [3, 14] | MIC alone [3, 19] | MIC alone [3, 20] | MIC alone [4, 32] | MIC alone [4, 38]
4 µg/mL: MIC combination [3, 7] | MIC combination [3, 9] | MIC combination [3, 11] | MIC combination [3, 17] | MIC combination [3, 19] | MIC combination [3, 23] | MIC alone [4, 26] | MIC alone [4, 27] | MIC alone [4, 29] | MIC alone [4, 31] | MIC combination [4, 32] | MIC alone [4, 35] | MIC alone [4, 37] | MIC combination [4, 38] | MIC alone [4, 41]
2 µg/mL: MIC combination [3, 10] | MIC combination [3, 18] | MIC combination [3, 20] | MIC combination [3, 24] | MIC alone [4, 25] | MIC combination [4, 28] | MIC alone [4, 33] | MIC combination [4, 34] | MIC alone [4, 39] | MIC combination [4, 41] | MIC alone [4, 43]
32 µg/mL: MIC alone [3, 9] | MIC alone [3, 10] | MIC combination [3, 12] | MIC combination [3, 16] | MIC alone [3, 17] | MIC alone [3, 18] | MIC combination [3, 21] | MIC alone [3, 23] | MIC alone [3, 24]
256 µg/mL: MIC alone [3, 6] | MIC alone [3, 8] | MIC alone [3, 12] | MIC alone [3, 16] | MIC alone [3, 22]
8 µg/mL: MIC combination [3, 15] | MIC alone [4, 28] | MIC alone [4, 30] | MIC alone [4, 34] | MIC alone [4, 36] | MIC alone [4, 40] | MIC alone [4, 42] | MIC alone [4, 44]
512 µg/mL: MIC alone [3, 5] | MIC alone [3, 7] | MIC alone [3, 15] | MIC alone [3, 21]
0.5 µg/mL: MIC combination [4, 26] | MIC combination [4, 33] | MIC combination [4, 39] | MIC combination [4, 42] | MIC combination [4, 43] | MIC combination [4, 44]
1 µg/mL: MIC combination [3, 13] | MIC combination [3, 14] | MIC combination [4, 25] | MIC combination [4, 29] | MIC combination [4, 31] | MIC combination [4, 35] | MIC combination [4, 36] | MIC combination [4, 37]
0.25 µg/mL: MIC combination [4, 27] | MIC combination [4, 30] | MIC combination [4, 40]
